Data published in ChEMBL document CHEMBL1201862, “PubChem BioAssay data set” (2004).
Calls of active or inactive are those of the source.

Tests used:
[1] = biological target: Mothers against decapentaplegic homolog 3 (Homo sapiens, UniProt P84022); assay: Smad3 binding inhibitors, lysate ELISA, dose response, cell lysate, secondary confirmation, chemiluminescent ELISA, HEK293 lysate (AID 1058); type: functional
HeLa = assay: HeLa cell cytotoxicity, dose response, cytotoxicity control, 24 h, cherry-picked samples (AID 504726); type: functional, cell-based; conditions: Homo sapiens;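 note: potency for cytotoxicity as loss of luminescence signal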
[2] = biological target: T1, Eukaryotic translation initiation factor 2-alpha kinase 3 (Homo sapiens, UniProt Q9NZJ5); assay: Counterscreen assay for PERK inhibitors: Dose response cell-based high throughput screening assay to measure inhibition of PERK at 6 hours. [Related pubchem assays: 1522, 1416 ]; type: functional
T1 sequence (Q9NZJ5 whole entry): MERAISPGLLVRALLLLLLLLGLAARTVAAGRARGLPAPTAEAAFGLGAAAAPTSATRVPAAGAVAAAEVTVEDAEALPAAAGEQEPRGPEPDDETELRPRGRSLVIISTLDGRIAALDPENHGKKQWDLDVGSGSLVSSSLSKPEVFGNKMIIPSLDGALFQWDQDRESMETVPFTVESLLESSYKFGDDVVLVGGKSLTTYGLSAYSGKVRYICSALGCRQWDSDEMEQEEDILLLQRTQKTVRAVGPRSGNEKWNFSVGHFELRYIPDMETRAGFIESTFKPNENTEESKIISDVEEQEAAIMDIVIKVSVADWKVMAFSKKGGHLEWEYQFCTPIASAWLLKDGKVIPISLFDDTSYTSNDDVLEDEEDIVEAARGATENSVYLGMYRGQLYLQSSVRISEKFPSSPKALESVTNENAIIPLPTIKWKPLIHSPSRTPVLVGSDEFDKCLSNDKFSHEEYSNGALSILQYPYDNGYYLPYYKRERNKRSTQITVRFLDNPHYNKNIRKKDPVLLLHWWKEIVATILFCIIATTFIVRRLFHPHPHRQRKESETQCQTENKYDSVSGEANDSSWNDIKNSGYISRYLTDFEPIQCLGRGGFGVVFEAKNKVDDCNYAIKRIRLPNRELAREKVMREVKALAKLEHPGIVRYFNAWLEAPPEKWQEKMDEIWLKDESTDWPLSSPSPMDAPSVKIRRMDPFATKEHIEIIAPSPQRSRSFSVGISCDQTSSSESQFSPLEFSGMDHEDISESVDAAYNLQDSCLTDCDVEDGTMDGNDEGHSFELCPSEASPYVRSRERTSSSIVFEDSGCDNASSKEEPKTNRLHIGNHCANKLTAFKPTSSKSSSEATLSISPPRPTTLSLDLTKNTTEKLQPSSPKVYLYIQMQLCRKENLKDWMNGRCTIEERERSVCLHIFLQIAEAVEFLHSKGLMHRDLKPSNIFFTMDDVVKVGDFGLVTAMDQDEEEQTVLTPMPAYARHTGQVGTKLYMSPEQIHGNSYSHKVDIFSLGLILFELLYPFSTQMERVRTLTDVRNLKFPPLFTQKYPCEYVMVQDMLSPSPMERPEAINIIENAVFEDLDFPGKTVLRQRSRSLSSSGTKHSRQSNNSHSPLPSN

[3] = biological target: T1, Eukaryotic translation initiation factor 2-alpha kinase 3; assay: Dose response cell-based high-throughput screening assay to measure PERK inhibition. [Related pubchem assays: 1416 ]; type: functional
Streptokinase A = biological target: T2, Streptokinase A (Streptococcus pyogenes serotype M1, UniProt P10520); assay: S. pyogenes streptokinase expression inhibitors, potency, dose response, plasminogen activation absorbance, OD405 (AID 1914); type: functional, Streptococcus pyogenes M1 GAS;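 note: secreted streptokinase activity via plasminogen activation per viability signal from cell pellet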
T2 sequence (P10520 whole entry): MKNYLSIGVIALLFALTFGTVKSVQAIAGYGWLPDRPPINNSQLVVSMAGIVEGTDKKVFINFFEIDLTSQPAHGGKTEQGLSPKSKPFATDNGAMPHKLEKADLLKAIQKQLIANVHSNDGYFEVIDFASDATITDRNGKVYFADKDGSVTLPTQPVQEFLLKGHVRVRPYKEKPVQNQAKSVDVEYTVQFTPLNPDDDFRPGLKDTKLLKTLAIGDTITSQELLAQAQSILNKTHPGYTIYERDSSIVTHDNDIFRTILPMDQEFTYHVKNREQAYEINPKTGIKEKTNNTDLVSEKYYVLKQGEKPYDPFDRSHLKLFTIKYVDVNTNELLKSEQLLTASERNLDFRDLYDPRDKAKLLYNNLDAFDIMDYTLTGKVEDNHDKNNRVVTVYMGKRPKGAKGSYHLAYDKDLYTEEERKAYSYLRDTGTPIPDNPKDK

Hexokinase HKDC1 = biological target: T3, Hexokinase HKDC1 (Homo sapiens, UniProt Q2TB90); assay: HKDC1 hexokinase inhibitors, dose response, biochemical, W721R variant (AID 504729); type: functional
T3 sequence (Q2TB90 whole entry): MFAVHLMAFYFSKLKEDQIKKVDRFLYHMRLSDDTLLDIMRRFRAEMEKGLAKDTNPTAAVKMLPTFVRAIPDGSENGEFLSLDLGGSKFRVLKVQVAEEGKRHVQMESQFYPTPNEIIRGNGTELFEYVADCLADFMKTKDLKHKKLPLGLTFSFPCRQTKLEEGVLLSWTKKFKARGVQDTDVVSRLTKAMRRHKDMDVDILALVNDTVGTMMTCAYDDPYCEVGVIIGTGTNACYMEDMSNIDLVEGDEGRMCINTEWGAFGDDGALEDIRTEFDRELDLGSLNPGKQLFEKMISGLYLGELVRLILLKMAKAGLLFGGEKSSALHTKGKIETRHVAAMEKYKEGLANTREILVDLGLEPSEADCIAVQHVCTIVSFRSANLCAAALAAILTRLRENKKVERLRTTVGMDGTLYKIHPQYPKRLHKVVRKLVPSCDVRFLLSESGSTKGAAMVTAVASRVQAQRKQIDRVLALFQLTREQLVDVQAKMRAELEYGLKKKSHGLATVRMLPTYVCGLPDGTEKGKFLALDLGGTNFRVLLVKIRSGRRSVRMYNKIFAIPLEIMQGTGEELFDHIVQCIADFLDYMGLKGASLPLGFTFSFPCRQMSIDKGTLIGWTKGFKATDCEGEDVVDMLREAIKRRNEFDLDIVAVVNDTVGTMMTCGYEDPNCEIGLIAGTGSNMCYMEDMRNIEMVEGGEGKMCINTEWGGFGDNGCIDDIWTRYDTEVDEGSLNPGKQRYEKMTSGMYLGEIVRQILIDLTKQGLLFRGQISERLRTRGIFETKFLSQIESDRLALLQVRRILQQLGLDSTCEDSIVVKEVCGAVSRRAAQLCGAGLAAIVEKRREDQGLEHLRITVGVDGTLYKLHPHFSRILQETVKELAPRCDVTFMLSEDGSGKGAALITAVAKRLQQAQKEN

Streptococcus = assay: Group A Streptococcus viability loss, dose response, counter-screen for streptokinase expression inhibitor project, luminescence, BacTiterGlo (AID 1915); type: functional, organism-based;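 note: potency for reduction of bacterial viability or growth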
[4] = system: Streptococcus sp. 'group A'; assay: growth inhibition of control SK(-) GAS strain, dose response, counter-screen for streptokinase expression inhibitor project, luminescence, kanamycin, BacTiterGlo, confirmation (AID 1900); type: functional, organism-based
[5] = biological target: T4, Microphthalmia-associated transcription factor (Homo sapiens, UniProt O75030); assay: TRPM1 promoter luciferase signal decrease, dose response, MITF inhibitor project, cell-based, SK-MEL-5, cherry-picked, set 3 (AID 493073); type: functional
T4 sequence (O75030 whole entry): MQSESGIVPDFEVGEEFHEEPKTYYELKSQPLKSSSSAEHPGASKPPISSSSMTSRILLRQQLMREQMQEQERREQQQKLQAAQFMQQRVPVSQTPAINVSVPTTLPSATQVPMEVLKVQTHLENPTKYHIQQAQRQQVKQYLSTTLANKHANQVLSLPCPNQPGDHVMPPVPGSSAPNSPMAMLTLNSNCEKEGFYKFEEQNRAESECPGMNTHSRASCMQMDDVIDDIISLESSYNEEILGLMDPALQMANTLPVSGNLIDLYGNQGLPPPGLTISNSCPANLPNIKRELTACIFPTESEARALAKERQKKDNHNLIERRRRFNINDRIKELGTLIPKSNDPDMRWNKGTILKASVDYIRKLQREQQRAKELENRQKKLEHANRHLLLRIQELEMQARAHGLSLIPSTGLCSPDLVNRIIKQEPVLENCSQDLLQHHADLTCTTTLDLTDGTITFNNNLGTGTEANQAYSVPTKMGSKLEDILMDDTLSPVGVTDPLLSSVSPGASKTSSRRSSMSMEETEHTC

[6] = A Cell Based Secondary Assay To Explore Cytotoxicity of Compounds that Sensitize Mycobacterium Tuberculosis to Beta-Lactam Antibiotics.; type: functional
[7] = A375 melanoma cell cytotoxicity, dose response, counter-screen for MITF inhibitor project, CellTiter-Glo luminescence, dry powder, set 2 (AID 624489); type: functional, cell-based; conditions: A-375;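 note: actives are compounds lowering A375 viability meaning general cytotoxicity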
[8] = A375 melanoma cell viability loss, dose response, counter-screen for MITF inhibitor project, CellTiter-Glo luminescence, dry powder, set 4 (AID 624364); type: functional, cell-based; conditions: A-375;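 note: A375 melanoma cells are MITF independent so this is a counter screen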
[9] = Luminescence Cell-Based Dose Retest to Confirm Inhibitors of Cancer Stem Cells. [Related pubchem assays (depositor defined):AID2717, AID2721]; type: functional; conditions: Homo sapiens
Cytochrome P450 2C9 = Cytochrome P450 2C9 (Homo sapiens, UniProt P11712)
Cytochrome P450 2C9, sequence (P11712 whole entry): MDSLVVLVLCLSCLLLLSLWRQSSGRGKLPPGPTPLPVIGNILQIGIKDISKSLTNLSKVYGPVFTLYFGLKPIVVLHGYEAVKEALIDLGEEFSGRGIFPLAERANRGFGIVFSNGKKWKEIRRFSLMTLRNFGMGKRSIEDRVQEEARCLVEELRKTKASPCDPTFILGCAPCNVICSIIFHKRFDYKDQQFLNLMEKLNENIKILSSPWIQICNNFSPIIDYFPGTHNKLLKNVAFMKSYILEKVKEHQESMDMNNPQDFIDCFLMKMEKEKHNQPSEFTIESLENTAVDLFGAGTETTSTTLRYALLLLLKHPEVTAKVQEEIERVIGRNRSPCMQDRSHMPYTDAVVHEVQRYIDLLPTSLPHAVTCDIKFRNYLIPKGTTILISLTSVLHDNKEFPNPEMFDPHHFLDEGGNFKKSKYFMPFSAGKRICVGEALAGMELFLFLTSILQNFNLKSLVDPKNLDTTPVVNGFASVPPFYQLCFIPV

Cytochrome P450 2C19 = Cytochrome P450 2C19 (Homo sapiens, UniProt P33261); assay: Cytochrome panel assay with activity outcomes. Panel member name: p450-cyp2c19 Compounds with AC50 equal or less than 10 uM are considered active; type: functional; conditions: read-out: AC50
Cytochrome P450 2C19, sequence (P33261 whole entry): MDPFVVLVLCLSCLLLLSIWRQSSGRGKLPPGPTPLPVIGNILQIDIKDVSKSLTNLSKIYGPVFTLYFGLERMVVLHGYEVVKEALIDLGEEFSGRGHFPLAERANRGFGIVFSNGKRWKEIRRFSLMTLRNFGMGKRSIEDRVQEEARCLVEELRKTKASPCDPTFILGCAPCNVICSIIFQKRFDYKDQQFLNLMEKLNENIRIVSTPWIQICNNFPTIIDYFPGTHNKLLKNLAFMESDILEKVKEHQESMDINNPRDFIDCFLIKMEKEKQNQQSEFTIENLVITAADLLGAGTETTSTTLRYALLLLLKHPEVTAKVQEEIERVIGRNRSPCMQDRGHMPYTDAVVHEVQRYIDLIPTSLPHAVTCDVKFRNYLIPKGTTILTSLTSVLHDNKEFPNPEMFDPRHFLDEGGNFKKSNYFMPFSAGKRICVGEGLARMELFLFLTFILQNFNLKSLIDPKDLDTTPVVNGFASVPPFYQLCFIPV

[10] = biological target: T5, Alkaline phosphatase, tissue-nonspecific isozyme (Homo sapiens, UniProt P05186)
T5 sequence (P05186 whole entry): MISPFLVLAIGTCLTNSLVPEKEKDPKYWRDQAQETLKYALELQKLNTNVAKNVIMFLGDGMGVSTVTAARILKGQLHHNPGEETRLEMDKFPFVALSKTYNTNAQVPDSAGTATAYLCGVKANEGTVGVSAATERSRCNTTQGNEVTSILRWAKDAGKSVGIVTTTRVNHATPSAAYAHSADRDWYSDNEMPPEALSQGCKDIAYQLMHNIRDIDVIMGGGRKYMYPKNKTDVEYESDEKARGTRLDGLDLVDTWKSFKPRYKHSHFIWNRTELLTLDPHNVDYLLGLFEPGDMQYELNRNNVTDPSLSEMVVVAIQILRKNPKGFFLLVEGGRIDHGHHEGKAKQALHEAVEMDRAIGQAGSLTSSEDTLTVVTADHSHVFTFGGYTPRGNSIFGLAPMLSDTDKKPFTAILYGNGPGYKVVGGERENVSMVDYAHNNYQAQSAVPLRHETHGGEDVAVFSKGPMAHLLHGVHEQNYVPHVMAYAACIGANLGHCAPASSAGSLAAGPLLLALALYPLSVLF

Mothers against decapentaplegic homolog 3, sequence (P84022 whole entry): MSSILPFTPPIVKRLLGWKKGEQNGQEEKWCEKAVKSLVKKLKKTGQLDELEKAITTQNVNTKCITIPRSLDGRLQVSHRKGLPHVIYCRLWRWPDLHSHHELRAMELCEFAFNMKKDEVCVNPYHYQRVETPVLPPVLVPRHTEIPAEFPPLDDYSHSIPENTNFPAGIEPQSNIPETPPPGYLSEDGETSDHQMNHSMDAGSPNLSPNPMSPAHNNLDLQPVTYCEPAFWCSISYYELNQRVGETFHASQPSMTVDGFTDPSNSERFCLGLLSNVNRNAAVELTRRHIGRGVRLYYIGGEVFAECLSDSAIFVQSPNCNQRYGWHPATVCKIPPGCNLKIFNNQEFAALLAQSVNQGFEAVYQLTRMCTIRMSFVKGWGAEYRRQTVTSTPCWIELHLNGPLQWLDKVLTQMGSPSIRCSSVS

SMILES: COc1cccc(C(c2cc3c(cc2O)OCO3)N2CCOCC2)c1OC (stereo not given)
- IC50 [1]: 6.43 µM (not active)

SMILES: CCOc1ccc(C(C)NC(=O)c2ccccc2OCc2c(C)noc2C)cc1OCC (stereo not given)
- AC50 (HeLa): 113 µM (active)

SMILES: CC(C)(C)N1CCC1CN (stereo not given)
- EC50 [2]: > 55.7 µM (not active)
- EC50 [3]: > 55.7 µM (not active)

SMILES: N#C/C(=C(/O)CCl)c1nc2c(s1)CCc1ccccc1-2
- EC50 (Streptokinase A): > 150 µM (not active)
- IC50 (Hexokinase HKDC1): 17.4 µM (active)
- EC50 (Streptococcus): > 150 µM (not active)
- EC50 [4]: > 150 µM (not active)

SMILES: Cc1nc([N+](=O)[O-])cn1CCC#N
- EC50 [2]: > 55.7 µM (not active)
- EC50 [3]: > 55.7 µM (not active)

SMILES: CC1CCN(CC(CS(=O)(=O)c2ccc([N+](=O)[O-])cc2)N2CCC(C)CC2)CC1 (stereo not given)
- AC50 [5]: 6.62 µM (active)
- CC50 [6]: 7.41 µM (active)
- AC50 [7]: > 70 µM (inactive)
- AC50 [8]: > 70 µM (inactive)
- AC50 [9]: 1.59 µM (active)

SMILES: O=C(CCN1C(=O)/C(=C/c2cccc(Br)c2)SC1=S)NNC(=O)c1cccnc1
- AC50 (Cytochrome P450 2C9): 0.447 µM (inconclusive)
- AC50 (Cytochrome P450 2C19): 1.58 µM (inconclusive)
- EC50 [10]: 83.8 µM (not active)

SMILES: CCN(C(=O)COC(=O)CCCOc1ccc(Cl)cc1C)c1c(N)n(Cc2ccccc2)c(=O)[nH]c1=O
- AC50 (HeLa): 43.7 µM (active)

SMILES: O=C1OC2(c3ccc(O)cc3Oc3cc(O)ccc32)c2ccccc21 [FLUORESCEIN]
- IC50 [1]: 4.89 µM (not active)
